Measured values: ChEMBL document CHEMBL5058643, “Data for DCP probe BI-2081” (2022)

Columns and labels:
Conditions in all cases: Compound concentration 10.0 uM
[1] = molecular target: D(2) dopamine receptor (Homo sapiens) (UniProt P14416)
[2] = molecular target: Histamine H1 receptor (Homo sapiens) (UniProt P35367)
Rattus norvegicus = species: Rattus norvegicus
[3] = molecular target: Sodium-dependent noradrenaline transporter (Homo sapiens) (UniProt P23975)
[4] = molecular target: 5-hydroxytryptamine receptor 1D (Homo sapiens) (UniProt P28221)
Chain of 5-hydroxytryptamine receptor 1D (Homo sapiens) (P28221 whole entry): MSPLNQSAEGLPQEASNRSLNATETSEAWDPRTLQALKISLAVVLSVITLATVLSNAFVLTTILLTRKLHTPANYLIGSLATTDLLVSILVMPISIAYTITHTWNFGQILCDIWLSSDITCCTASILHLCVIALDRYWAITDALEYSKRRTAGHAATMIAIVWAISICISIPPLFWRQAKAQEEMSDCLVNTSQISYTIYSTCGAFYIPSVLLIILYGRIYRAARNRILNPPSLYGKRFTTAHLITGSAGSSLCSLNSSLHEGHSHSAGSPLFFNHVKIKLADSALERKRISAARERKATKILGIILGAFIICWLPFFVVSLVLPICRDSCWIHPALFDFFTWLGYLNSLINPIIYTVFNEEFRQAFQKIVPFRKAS

[5] = molecular target: T1, 5-hydroxytryptamine receptor 1A (Homo sapiens) (UniProt P08908)
T1 sequence (whole entry): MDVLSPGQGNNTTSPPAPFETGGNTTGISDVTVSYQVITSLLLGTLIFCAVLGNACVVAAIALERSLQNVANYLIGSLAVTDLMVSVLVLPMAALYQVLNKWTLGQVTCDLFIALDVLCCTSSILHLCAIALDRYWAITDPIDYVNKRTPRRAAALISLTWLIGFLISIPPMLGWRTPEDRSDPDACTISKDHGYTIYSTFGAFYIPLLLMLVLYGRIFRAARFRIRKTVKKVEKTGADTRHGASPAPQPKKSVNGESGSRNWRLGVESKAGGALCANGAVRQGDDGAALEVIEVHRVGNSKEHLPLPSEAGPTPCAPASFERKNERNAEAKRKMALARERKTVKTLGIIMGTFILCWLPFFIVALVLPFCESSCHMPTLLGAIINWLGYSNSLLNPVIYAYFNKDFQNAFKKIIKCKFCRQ

[6] = molecular target: T2, Muscarinic acetylcholine receptor M1 (Homo sapiens) (UniProt P11229)
T2 sequence (whole entry): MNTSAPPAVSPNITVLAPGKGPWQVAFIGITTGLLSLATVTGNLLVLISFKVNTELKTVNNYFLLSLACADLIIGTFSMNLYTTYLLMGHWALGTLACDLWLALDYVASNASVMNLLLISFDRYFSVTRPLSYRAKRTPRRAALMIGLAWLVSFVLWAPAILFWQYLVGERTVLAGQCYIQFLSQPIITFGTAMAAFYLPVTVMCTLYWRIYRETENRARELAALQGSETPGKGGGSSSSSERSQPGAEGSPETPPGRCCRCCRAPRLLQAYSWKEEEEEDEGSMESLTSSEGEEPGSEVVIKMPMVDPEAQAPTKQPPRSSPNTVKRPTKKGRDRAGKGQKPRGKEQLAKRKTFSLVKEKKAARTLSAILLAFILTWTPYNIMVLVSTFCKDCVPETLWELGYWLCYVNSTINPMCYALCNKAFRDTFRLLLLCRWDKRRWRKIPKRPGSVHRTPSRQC

[7] = molecular target: GABA-A receptor; anion channel (Rattus norvegicus) (UniProt O09028+P15431+P18506+P18508+P19969+P20236+P23574+P23576+P28471+P28473+P30191+P62813+P63079+P63138+Q91ZM7+Q9ES14)
[8] = molecular target: Sodium-dependent serotonin transporter (Homo sapiens) (UniProt P31645)
Chain of Sodium-dependent serotonin transporter (Homo sapiens) (P31645 whole entry, looked up): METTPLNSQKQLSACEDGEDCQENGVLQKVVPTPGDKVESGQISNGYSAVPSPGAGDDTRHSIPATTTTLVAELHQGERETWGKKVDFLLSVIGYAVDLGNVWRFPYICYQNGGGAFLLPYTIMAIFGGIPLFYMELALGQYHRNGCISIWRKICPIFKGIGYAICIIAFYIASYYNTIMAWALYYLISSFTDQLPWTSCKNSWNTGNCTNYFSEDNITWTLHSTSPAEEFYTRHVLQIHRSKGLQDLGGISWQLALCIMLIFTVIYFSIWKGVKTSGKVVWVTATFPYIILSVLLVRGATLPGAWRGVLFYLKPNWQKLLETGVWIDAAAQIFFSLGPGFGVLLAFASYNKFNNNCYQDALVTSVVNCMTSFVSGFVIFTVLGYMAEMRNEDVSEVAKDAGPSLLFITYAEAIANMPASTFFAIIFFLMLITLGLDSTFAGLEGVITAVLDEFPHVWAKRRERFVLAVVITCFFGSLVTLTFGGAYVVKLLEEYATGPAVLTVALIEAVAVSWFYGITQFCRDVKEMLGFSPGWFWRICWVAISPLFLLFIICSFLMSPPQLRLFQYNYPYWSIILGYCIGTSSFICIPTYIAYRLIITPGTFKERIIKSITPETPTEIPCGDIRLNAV

[9] = molecular target: Histamine H4 receptor (Homo sapiens) (UniProt Q9H3N8)
[10] = molecular target: T3, Alpha-1B adrenergic receptor (Homo sapiens) (UniProt P35368)
T3 sequence (whole entry): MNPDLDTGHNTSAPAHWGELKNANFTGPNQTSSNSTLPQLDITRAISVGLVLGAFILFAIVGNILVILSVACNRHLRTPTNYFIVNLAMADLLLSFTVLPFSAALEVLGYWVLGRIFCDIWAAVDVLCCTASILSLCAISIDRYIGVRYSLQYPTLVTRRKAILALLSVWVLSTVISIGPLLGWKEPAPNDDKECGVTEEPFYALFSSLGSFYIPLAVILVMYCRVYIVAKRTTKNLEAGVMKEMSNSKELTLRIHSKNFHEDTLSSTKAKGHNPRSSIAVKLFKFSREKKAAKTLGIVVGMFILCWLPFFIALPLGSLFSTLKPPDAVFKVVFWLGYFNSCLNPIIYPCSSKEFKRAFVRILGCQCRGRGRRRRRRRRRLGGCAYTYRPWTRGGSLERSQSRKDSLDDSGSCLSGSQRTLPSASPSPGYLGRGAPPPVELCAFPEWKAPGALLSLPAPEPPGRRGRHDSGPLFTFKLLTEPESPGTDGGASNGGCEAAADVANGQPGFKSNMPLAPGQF

[11] = molecular target: 5-hydroxytryptamine receptor 6 (Homo sapiens) (UniProt P50406)
Chain of 5-hydroxytryptamine receptor 6 (Homo sapiens) (P50406 whole entry): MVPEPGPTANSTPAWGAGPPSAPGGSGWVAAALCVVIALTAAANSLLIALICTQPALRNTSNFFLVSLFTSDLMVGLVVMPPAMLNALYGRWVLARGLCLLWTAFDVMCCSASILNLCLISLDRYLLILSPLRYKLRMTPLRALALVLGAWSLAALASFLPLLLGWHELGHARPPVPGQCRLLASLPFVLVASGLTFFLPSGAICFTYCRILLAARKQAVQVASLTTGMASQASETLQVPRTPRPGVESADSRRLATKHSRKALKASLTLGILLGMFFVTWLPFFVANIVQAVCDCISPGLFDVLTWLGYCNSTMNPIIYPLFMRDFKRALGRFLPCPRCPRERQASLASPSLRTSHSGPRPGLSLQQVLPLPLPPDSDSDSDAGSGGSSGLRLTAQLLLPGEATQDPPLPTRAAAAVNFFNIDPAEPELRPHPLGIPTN

[12] = molecular target: T4, Muscarinic acetylcholine receptor M2 (Homo sapiens) (UniProt P08172)
T4 sequence (whole entry): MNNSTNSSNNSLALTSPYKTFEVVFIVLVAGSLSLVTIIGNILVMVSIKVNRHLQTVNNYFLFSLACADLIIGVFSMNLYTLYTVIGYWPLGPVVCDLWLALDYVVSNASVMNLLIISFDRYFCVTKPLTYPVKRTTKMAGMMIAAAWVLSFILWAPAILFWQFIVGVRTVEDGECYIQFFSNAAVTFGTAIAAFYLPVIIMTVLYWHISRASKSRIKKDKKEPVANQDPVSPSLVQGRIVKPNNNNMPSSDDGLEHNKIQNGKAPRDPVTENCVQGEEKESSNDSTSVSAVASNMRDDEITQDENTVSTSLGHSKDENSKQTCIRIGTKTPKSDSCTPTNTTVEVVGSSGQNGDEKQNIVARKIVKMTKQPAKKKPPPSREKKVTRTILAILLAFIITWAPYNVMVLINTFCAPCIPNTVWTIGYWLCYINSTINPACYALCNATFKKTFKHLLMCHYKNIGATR

[13] = molecular target: Delta-type opioid receptor (Homo sapiens) (UniProt P41143)
Chain of Delta-type opioid receptor (Homo sapiens) (P41143 whole entry): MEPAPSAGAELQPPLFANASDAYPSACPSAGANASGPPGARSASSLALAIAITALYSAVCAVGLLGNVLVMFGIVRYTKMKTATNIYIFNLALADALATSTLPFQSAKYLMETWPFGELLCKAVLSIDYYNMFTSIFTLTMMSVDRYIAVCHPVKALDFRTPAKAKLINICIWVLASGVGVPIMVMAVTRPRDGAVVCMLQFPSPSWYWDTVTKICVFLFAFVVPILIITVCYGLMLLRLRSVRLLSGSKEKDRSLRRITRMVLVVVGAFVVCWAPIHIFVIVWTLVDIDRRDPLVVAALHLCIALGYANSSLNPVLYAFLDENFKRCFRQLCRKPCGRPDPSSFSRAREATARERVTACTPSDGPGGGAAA

[14] = molecular target: 5-hydroxytryptamine receptor 7 (Homo sapiens) (UniProt P34969)
Chain of 5-hydroxytryptamine receptor 7 (Homo sapiens) (P34969 whole entry): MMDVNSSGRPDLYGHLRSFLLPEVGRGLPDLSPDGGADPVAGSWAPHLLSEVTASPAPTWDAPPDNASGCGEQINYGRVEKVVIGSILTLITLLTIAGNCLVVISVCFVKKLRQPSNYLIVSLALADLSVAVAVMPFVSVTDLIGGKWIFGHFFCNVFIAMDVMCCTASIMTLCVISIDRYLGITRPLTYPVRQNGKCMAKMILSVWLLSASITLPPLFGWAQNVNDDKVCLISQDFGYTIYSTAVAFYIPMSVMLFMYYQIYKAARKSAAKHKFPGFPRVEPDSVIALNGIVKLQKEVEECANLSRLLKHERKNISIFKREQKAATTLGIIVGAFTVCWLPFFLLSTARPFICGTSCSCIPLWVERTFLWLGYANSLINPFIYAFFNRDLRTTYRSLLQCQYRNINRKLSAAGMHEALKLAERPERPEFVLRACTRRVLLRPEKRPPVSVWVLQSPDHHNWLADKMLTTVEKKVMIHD

[15] = molecular target: D(1A) dopamine receptor (Homo sapiens) (UniProt P21728)
[16] = molecular target: 5-hydroxytryptamine receptor 2A (Homo sapiens) (UniProt P28223)
[17] = molecular target: 5-hydroxytryptamine receptor 1B (Homo sapiens) (UniProt P28222)
Chain of 5-hydroxytryptamine receptor 1B (Homo sapiens) (P28222 whole entry): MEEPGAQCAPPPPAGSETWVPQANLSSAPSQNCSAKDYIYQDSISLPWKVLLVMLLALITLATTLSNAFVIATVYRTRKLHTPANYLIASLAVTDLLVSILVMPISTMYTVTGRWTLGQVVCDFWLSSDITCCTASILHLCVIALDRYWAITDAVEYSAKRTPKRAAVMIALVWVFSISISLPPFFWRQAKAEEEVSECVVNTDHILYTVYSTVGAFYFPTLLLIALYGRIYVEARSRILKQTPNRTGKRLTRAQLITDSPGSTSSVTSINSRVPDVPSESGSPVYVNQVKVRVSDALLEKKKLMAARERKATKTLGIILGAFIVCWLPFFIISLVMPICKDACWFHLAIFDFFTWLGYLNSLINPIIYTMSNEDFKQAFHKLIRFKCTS

[18] = molecular target: D(3) dopamine receptor (Homo sapiens) (UniProt P35462)
[19] = molecular target: Histamine H2 receptor (Homo sapiens) (UniProt P25021)
Chain of Histamine H2 receptor (Homo sapiens) (P25021 whole entry): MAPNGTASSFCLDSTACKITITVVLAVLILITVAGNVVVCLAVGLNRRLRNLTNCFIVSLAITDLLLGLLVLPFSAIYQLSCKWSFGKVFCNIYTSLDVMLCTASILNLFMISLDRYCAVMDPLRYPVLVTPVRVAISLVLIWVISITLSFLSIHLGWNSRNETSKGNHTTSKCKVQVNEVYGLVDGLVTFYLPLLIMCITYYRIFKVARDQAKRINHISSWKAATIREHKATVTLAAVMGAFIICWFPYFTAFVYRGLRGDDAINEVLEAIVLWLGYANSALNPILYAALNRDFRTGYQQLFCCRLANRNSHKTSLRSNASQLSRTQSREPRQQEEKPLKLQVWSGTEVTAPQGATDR

Chain of D(2) dopamine receptor (Homo sapiens) (P14416 whole entry): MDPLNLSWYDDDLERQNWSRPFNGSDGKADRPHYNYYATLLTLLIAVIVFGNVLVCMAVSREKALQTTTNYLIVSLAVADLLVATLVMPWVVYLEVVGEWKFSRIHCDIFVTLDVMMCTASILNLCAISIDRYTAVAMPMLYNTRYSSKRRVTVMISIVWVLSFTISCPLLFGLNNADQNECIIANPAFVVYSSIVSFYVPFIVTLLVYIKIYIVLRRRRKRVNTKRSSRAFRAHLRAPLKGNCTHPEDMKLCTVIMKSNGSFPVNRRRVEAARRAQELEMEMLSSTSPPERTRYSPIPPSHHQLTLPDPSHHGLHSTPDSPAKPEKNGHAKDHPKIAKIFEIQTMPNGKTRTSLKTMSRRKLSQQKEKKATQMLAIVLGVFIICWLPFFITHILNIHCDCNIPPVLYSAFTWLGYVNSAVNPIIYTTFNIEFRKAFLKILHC
Chain of Sodium-dependent noradrenaline transporter (Homo sapiens) (P23975 whole entry): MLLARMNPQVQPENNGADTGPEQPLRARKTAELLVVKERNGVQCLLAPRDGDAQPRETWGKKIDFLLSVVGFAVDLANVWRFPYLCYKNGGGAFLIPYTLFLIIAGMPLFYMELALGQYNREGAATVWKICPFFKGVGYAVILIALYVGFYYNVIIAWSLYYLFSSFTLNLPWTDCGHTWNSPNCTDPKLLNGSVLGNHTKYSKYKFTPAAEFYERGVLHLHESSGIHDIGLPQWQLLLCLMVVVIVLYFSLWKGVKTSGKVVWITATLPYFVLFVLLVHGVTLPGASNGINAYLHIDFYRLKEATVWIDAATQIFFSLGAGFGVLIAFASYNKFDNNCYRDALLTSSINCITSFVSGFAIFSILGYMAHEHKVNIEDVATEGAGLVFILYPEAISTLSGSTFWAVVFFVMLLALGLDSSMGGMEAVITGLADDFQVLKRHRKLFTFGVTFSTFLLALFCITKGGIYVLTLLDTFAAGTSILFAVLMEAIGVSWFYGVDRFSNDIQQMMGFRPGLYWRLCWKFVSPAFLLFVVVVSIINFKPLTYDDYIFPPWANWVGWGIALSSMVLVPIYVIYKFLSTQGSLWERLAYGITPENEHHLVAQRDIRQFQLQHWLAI
Chain of Histamine H1 receptor (Homo sapiens) (P35367 whole entry): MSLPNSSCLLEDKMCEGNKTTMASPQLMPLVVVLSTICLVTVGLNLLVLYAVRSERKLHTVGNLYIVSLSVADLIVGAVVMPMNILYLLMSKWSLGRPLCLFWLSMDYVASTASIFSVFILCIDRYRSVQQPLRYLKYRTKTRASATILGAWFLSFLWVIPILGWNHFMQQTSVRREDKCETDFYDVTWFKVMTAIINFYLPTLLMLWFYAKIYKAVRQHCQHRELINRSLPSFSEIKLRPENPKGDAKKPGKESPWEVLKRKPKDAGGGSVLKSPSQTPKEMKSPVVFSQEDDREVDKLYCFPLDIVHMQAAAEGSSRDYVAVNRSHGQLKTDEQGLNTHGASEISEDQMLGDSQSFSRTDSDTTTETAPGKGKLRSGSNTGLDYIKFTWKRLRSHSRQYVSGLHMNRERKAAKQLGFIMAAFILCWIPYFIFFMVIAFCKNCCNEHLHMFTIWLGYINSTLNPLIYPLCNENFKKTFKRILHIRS

| inhibition [1] [%] | inhibition [2] [%] | inhibition (Rattus norvegicus) [%] | inhibition [3] [%] | inhibition [4] [%] | inhibition [5] [%] | inhibition [6] [%] | inhibition [7] [%] | inhibition [8] [%] | inhibition [9] [%] | inhibition [10] [%] | inhibition [11] [%] | inhibition [12] [%] | inhibition [13] [%] | inhibition [14] [%] | inhibition [15] [%] | inhibition [16] [%] | inhibition [17] [%] | inhibition [18] [%] | inhibition [19] [%] | Structure (SMILES) |
| --- | --- | --- | --- | --- | --- | --- | --- | --- | --- | --- | --- | --- | --- | --- | --- | --- | --- | --- | --- | --- |
| 8.15 | -1.92 | 36.1 | 11.1 | -3.85 | 31.1 | 7.17 | 30.7 | -1.62 | -2.95 | -4.9 | -8.04 | -3.61 | 20.8 | 3.29 | -9.32 | -2.26 | 5.08 | 20.4 | 15 | COCCCS(=O)(=O)c1cc(C)c(-c2ccc(F)c3c2CC[C@H]3Oc2ccc3c(c2)OC[C@H]3CC(=O)O)c(C)c1 |
| 3.28 | 10.3 | 40.4 | 9.38 | 6.65 | 22.6 | -3.94 | 66.7 | 4.25 | -5.97 | -7.32 | -2.53 | -3.23 | 24.4 | 13 | 0.05 | -0.3 | 18.6 | -6.42 | 8.54 | Cc1cc(OCCC(C)(C)O)cc(C)c1-c1ccc(F)c2c1CC[C@H]2Oc1ccc2c(c1)OC[C@H]2CC(=O)O |
